We go through one compound from patent US20130059787A1, “METHODS OF USING HUMAN PROTEIN KINASE C DELTA VIII AS A BIOMARKER” (UNITED STATES DEPARTMENT OF VETERAN AFFAIRS, priority 2010, published 2013).

In one assay the test system is PKCδI mRNA. Nature of the assay: Quantitative real-time RT-PCR (SYBR Green) in primary human neuronal cells from hippocampus. Type of assay: cell-based. Conditions: RA about 10 μM, about 24 h. An excerpt: (§1) FIG. 1 is a series of images illustrating the alternative splice site in human PKC δ. (a) schematic of alternative 5′ splice site selection in human PKCδ pre-mRNA exon 10 that results in the generation of PKCδI mRNA and PKCδVIII mRNA, which differ by about 93 bp in the V3 hinge region. RA promotes expression of PKCδVIII mRNA. SSI: 5′ splice site I; SSII: 5′ splice site II. (b) schematic of the primers specific for PKC δI and PKC δVIII used in real time RT-PCR such that they span the exon-exon boundaries. (c) primary human neuronal cells from hippocampus were treated with or without RA (about 10 μM) for about 24 h. […]
(§2) cDNA (about 2 μl) was amplified by real-time quantitative PCR using Syber (SYBR) Green with an ABI PRISM 7900 sequence detection system (PE Applied Biosystems, Foster City, Calif.) as described previously to quantify absolute levels of PKCδI and PKCδVIII mRNA in the samples (Jiang, K., Apostolatos, A. H., Ghansah, T., Watson, J. E., Vickers, T., Cooper, D. R., Epling-Burnette, P. K., and Patel, N. A. (2008) Biochemistry 47, 787-797). […]
(§3) sense primer 5′-[…]-3′(SEQ ID No: 6) and antisense primer 5′-[…]-3′ (SEQ ID No: 7). […] Absolute quantification of mRNA expression levels for PKCδI and PKCδVIII was calculated by normalizing the values to GAPDH. The results were analyzed with two-tailed Student's t test using PRISM4 statistical analysis software (GraphPad, San Diego, Calif.). […]

Another assay has as its system PKCδVIII mRNA. Described as above. It is filed as cell-based. Conditions: RA about 10 μM, about 24 h.
Source text: as §1, §2, §3

Turning to `CC1=C(/C=C/C(C)=C/C=C/C(C)=C/C(=O)O)C(C)(C)CCC1` [RA, all-trans-retinoic acid], the “absolute mRNA expression of PKCδI normalized to GAPDH” value in the assay with PKCδI mRNA is “remain constant”. In addition, the “absolute mRNA expression of PKCδVIII normalized to GAPDH” value in the assay with PKCδVIII mRNA is listed as “increased”.
